PubChem BioAssay (NCI)
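How tested: cells in 96-well plates exposed to compound for 48 hours at five concentrations. TGI is the concentration that stops growth completely.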

What was measured:
Test in all cases: growth of human tumour cells (NCI), 48 h
786-0 renal = tested on: 786-0 renal
A549 NSCLC = tested on: A549 NSCLC
BT-549 breast = tested on: BT-549 breast
CAKI-1 renal = tested on: CAKI-1 renal
COLO 205 colon = tested on: COLO 205 colon
DU-145 prostate = tested on: DU-145 prostate
HCC-2998 colon = tested on: HCC-2998 colon
HCT-116 colon = tested on: HCT-116 colon
HCT-15 colon = tested on: HCT-15 colon
HOP-92 NSCLC = tested on: HOP-92 NSCLC
HT29 colon = tested on: HT29 colon
IGROV1 ovarian = tested on: IGROV1 ovarian
KM12 colon = tested on: KM12 colon
M14 melanoma = tested on: M14 melanoma
MALME-3M melanoma = tested on: MALME-3M melanoma
MCF7 breast = tested on: MCF7 breast
MDA-MB-231 breast = tested on: MDA-MB-231 breast
MDA-N = tested on: MDA-N
NCI-H226 lung = tested on: NCI-H226 lung
NCI-H23 lung = tested on: NCI-H23 lung
NCI-H522 lung = tested on: NCI-H522 lung
NCI/ADR-RES ovarian = tested on: NCI/ADR-RES ovarian
OVCAR-3 ovarian = tested on: OVCAR-3 ovarian
OVCAR-4 ovarian = tested on: OVCAR-4 ovarian
OVCAR-5 ovarian = tested on: OVCAR-5 ovarian
OVCAR-8 ovarian = tested on: OVCAR-8 ovarian
PC-3 prostate = tested on: PC-3 prostate
RPMI-8226 leukemia = tested on: RPMI-8226 leukemia
RXF 393 renal = tested on: RXF 393 renal
SF-268 CNS = tested on: SF-268 CNS
SF-295 CNS = tested on: SF-295 CNS
SF-539 CNS = tested on: SF-539 CNS
SK-MEL-2 melanoma = tested on: SK-MEL-2 melanoma
SK-MEL-28 melanoma = tested on: SK-MEL-28 melanoma
SK-MEL-5 melanoma = tested on: SK-MEL-5 melanoma
SN12C renal = tested on: SN12C renal
SNB-19 CNS = tested on: SNB-19 CNS
SNB-75 CNS = tested on: SNB-75 CNS
SR leukemia = tested on: SR leukemia
SW-620 colon = tested on: SW-620 colon
T-47D breast = tested on: T-47D breast
TK-10 renal = tested on: TK-10 renal
U251 CNS = tested on: U251 CNS
UACC-257 melanoma = tested on: UACC-257 melanoma
UACC-62 melanoma = tested on: UACC-62 melanoma
UO-31 renal = tested on: UO-31 renal
ACHN renal = tested on: ACHN renal
CCRF-CEM leukemia = tested on: CCRF-CEM leukemia
EKVX NSCLC = tested on: EKVX NSCLC
HL-60(TB) leukemia = tested on: HL-60(TB) leukemia
HOP-62 NSCLC = tested on: HOP-62 NSCLC
HS 578T breast = tested on: HS 578T breast
K-562 leukemia = tested on: K-562 leukemia
LOX IMVI melanoma = tested on: LOX IMVI melanoma
MDA-MB-435 = tested on: MDA-MB-435
MOLT-4 leukemia = tested on: MOLT-4 leukemia
NCI-H460 lung = tested on: NCI-H460 lung
SK-OV-3 ovarian = tested on: SK-OV-3 ovarian

Measured: TGI

COc1cc(C2c3cc4c(cc3OC(NN=C(C)C)C2C)OCO4)cc(OC)c1O (configuration not stated)
31.2 µM: RPMI-8226 leukemia
48.5 µM: SNB-75 CNS
25.3 µM: NCI-H522 lung
56.1 µM: SF-539 CNS
38.1 µM: SK-MEL-5 melanoma
31.6 µM: HCC-2998 colon
16.5 µM: SR leukemia
55.9 µM: SK-MEL-2 melanoma
11.6 µM: MDA-N
not listed: ACHN renal | CCRF-CEM leukemia | EKVX NSCLC | HL-60(TB) leukemia | HOP-62 NSCLC | HS 578T breast | K-562 leukemia | LOX IMVI melanoma | MDA-MB-435 | MOLT-4 leukemia | NCI-H460 lung | SK-OV-3 ovarian
> 100 µM: all other assays above

O=C1NCCCc2nonc21
not listed: BT-549 breast | NCI-H522 lung
> 100 µM: all other assays above
